{"source": "patent US10111890B2", "about": "“9-aminomethyl minocycline compounds and uses thereof” (Paratek Pharmaceuticals, Inc., priority 2016, dated 2018)", "key": {"[1]": {"experiment": "Phase 1 food-effect study: safety and tolerability", "format": "in vivo, human", "method": "Safety and tolerability was assessed by: Adverse events (AEs); vital sign measurements at multiple time-points within 24 hours post-dose in each treatment period; and clinical laboratory tests 24 hours post-dose in each treatment period."}, "[2]": {"experiment": "Phase 1 multiple oral dose (300, 450, 600 mg once daily x 5 days) crossover study: plasma pharmacokinetics", "details": "for Day 1 PK Summary, Geom. Mean / Day 1 PK Summary, Mean / Day 5 PK Summary, Geom. Mean / Day 5 PK Summary, Mean: preliminary results; for half-life / Tmax / AUC(0-t) / Cmax: human; for half-life: in vivo; for Tmax / AUC(0-t) / Cmax: plasma; for Cmax: Mean Cmax; for exposure (dose-normalized AUC0-24) as % of that predicted if perfectly dose-proportional: increase in dose from 300 mg to 600 mg", "excerpt": "Thus the study was designed as a Phase 1, randomized, double-blind, 3-period, crossover study in healthy adult subjects. The study consisted of a screening period (Day −21 through Day −2), 3 baseline periods (Day −1 of each period), 3 treatment periods (Day 1 through Day 6 of each period), and a study completion visit (within 6 to 10 days after the last dose of study drug in Period 3). There was a washout of at least 5 days between the last dose in one period and the first dose in the next period. Subjects were confined to the study site from Day −1 of Period 1 until discharge on Day 6 of Period 3, after the 24-hour blood sampling, urine sampling, and safety assessments were completed. Subjects returned to the study center 6 to 10 days after the last dose of study drug in Period 3 for the study completion visit.\nAll doses of study drug were administered in the morning with no food or drink except for water at least 6 hours prior to dosing. Subjects then had no food or drink except water for at least 2 hours after dosing and no dairy products, antacids, or multivitamins for 4 hours after dosing.\nThe 24-hour blood sample for Day 1 was collected prior to dosing on Day 2 for each period.\nPoint estimates and 90% CIs for differences on the log scale were exponentiated to obtain estimates for the ratios of geometric means and respective 90% CIs on the original scale. No adjustment was made for multiplicity.\nThe estimates of slope b were reported along with the corresponding 2-sided 90% CIs."}, "[3]": {"experiment": "Prior Phase 1 studies: bioavailability / bioequivalence of oral tablet formulation", "design": "species or system human", "details": "in vivo; for bioavailability: human"}, "[4]": {"details": "single 300 mg oral dose, healthy subjects"}}, "note": "Where two headings read alike, the source gives them in different places."}
{"smiles": "CN(C)c1cc(CNCC(C)(C)C)c(O)c2c1C[C@H]1C[C@H]3[C@H](N(C)C)C(O)=C(C(N)=O)C(=O)[C@@]3(O)C(O)=C1C2=O", "note": "[Omadacycline, 9-[(2,2-dimethyl-propylamino)-methyl]-minocycline]", "values": [{"measurement": "serious AE (SAE)", "setting": "[1]; [4]", "value": "no subject experienced a serious AE"}, {"measurement": "treatment-related adverse events, clinically relevant changes in laboratory values or vital signs", "setting": "[1]; [4]", "value": "No treatment-related adverse events or clinically relevant changes in laboratory values, or vital signs occurred"}, {"measurement": "median change from baseline in heart rate", "setting": "[1]; single 300 mg oral dose, all other treatment groups, all measured time points", "value": "≤ 3", "unit": "bpm"}, {"measurement": "tolerability", "setting": "[1]; single oral dose (300 mg), healthy subjects", "value": "well tolerated"}, {"measurement": "Mean AUC0-24", "setting": "[2]; 300 mg oral once daily, Day 5", "value": 9267.2, "unit": "ng·h/mL"}, {"measurement": "Cmax/Dose, Geometric LS Means", "setting": "[2]; 300 mg, Day 1", "value": 2.09, "unit": "ng/mL/mg"}, {"measurement": "Cmax/Dose, Geometric LS Means", "setting": "[2]; 300 mg, Day 5", "value": 2.62, "unit": "ng/mL/mg"}, {"measurement": "Cmax/Dose, Geometric LS Means", "setting": "[2]; 450 mg, Day 1", "value": 1.81, "unit": "ng/mL/mg"}, {"measurement": "Cmax/Dose, Geometric LS Means", "setting": "[2]; 450 mg, Day 5", "value": 2.32, "unit": "ng/mL/mg"}, {"measurement": "Cmax/Dose, Geometric LS Means", "setting": "[2]; 600 mg, Day 1", "value": 1.54, "unit": "ng/mL/mg"}, {"measurement": "Cmax/Dose, Geometric LS Means", "setting": "[2]; 600 mg, Day 5", "value": 2.11, "unit": "ng/mL/mg"}, {"measurement": "Day 1 PK Summary, Geom. Mean", "setting": "[2]; 300 (dose), Day 1", "value": "6,293.65"}, {"measurement": "Day 1 PK Summary, Mean", "setting": "[2]; 300 (dose), Day 1", "value": "6,560.73"}, {"measurement": "Day 5 PK Summary, Geom. Mean", "setting": "[2]; 300 (dose), Day 5", "value": "8,990.55"}, {"measurement": "Day 5 PK Summary, Mean", "setting": "[2]; 300 (dose), Day 5", "value": "9,351.02"}, {"measurement": "Day 1 PK Summary, Geom. Mean", "setting": "[2]; 450 (dose), Day 1", "value": "8,382.03"}, {"measurement": "Day 1 PK Summary, Mean", "setting": "[2]; 450 (dose), Day 1", "value": "8,959.13"}, {"measurement": "Day 5 PK Summary, Geom. Mean", "setting": "[2]; 450 (dose), Day 5", "value": "12,883.95"}, {"measurement": "Day 5 PK Summary, Mean", "setting": "[2]; 450 (dose), Day 5", "value": "13,363.54"}, {"measurement": "Day 1 PK Summary, Geom. Mean", "setting": "[2]; 600 (dose), Day 1", "value": "9,644.67"}, {"measurement": "Day 1 PK Summary, Mean", "setting": "[2]; 600 (dose), Day 1", "value": "9,990.20"}, {"measurement": "Day 5 PK Summary, Geom. Mean", "setting": "[2]; 600 (dose), Day 5", "value": "15,431.37"}, {"measurement": "Day 5 PK Summary, Mean", "setting": "[2]; 600 (dose), Day 5", "value": "16,171.61"}, {"measurement": "systemic exposure on Day 5 higher than on Day 1", "setting": "[2]; all tested dose levels", "value": "~50", "unit": "%"}, {"measurement": "half-life", "setting": "[2]; mean half-life in plasma (T1/2), across the 3 tested dose levels, Day 1", "value": "~13", "unit": "h"}, {"measurement": "half-life", "setting": "[2]; mean half-life in plasma (T1/2), across the 3 tested dose levels, Day 5", "value": "~16", "unit": "h"}, {"measurement": "half-life", "setting": "[2]; po, 300 mg, Mean T1/2, 300 mg oral once daily, Day 1", "value": 13.7, "unit": "h"}, {"measurement": "half-life", "setting": "[2]; po, 300 mg, Mean T1/2, 300 mg oral once daily, Day 5", "value": 15.5, "unit": "h"}, {"measurement": "half-life", "setting": "[2]; po, 450 mg, Mean T1/2, 450 mg oral once daily, Day 1", "value": 13.4, "unit": "h"}, {"measurement": "half-life", "setting": "[2]; po, 450 mg, Mean T1/2, 450 mg oral once daily, Day 5", "value": 16.8, "unit": "h"}, {"measurement": "half-life", "setting": "[2]; po, 600 mg, Mean T1/2, 600 mg oral once daily, Day 1", "value": 13, "unit": "h"}, {"measurement": "half-life", "setting": "[2]; po, 600 mg, Mean T1/2, 600 mg oral once daily, Day 5", "value": 16.8, "unit": "h"}, {"measurement": "Tmax", "setting": "[2]; oral, 600 mg, time at which mean plasma concentrations peaked (Tmax), all tested dose levels (300, 450, 600 mg), Day 1 and Day 5", "value": 2.5, "unit": "h"}, {"measurement": "AUC(0-t)", "setting": "[2]; po, 300 mg, Mean AUC0-24, 300 mg oral once daily, Day 1", "value": 6640, "unit": "ng·h/mL"}, {"measurement": "AUC(0-t)", "setting": "[2]; po, 300 mg, Mean AUC0-24, 300 mg oral once daily, Day 5", "value": 9270, "unit": "ng·h/mL"}, {"measurement": "Cmax", "setting": "[2]; po, 300 mg, 300 mg oral once daily, Day 1", "value": 649, "unit": "ng/mL"}, {"measurement": "Cmax", "setting": "[2]; po, 300 mg, 300 mg oral once daily, Day 5", "value": 809, "unit": "ng/mL"}, {"measurement": "Tmax", "setting": "[2]; po, 300 mg, Mean Tmax, 300 mg oral once daily, Day 1", "value": 2.5, "unit": "h"}, {"measurement": "Tmax", "setting": "[2]; po, 300 mg, Mean Tmax, 300 mg oral once daily, Day 5", "value": 2.5, "unit": "h"}, {"measurement": "AUC(0-t)", "setting": "[2]; po, 450 mg, Mean AUC0-24, 450 mg oral once daily, Day 1", "value": 8980, "unit": "ng·h/mL"}, {"measurement": "AUC(0-t)", "setting": "[2]; po, 450 mg, Mean AUC0-24, 450 mg oral once daily, Day 5", "value": 13400, "unit": "ng·h/mL"}, {"measurement": "Cmax", "setting": "[2]; po, 450 mg, 450 mg oral once daily, Day 1", "value": 874, "unit": "ng/mL"}, {"measurement": "Cmax", "setting": "[2]; po, 450 mg, 450 mg oral once daily, Day 5", "value": 1080, "unit": "ng/mL"}, {"measurement": "Tmax", "setting": "[2]; po, 450 mg, Mean Tmax, 450 mg oral once daily, Day 1", "value": 2.5, "unit": "h"}, {"measurement": "Tmax", "setting": "[2]; po, 450 mg, Mean Tmax, 450 mg oral once daily, Day 5", "value": 2.5, "unit": "h"}, {"measurement": "AUC(0-t)", "setting": "[2]; po, 600 mg, Mean AUC0-24, 600 mg oral once daily, Day 1", "value": 10000, "unit": "ng·h/mL"}, {"measurement": "AUC(0-t)", "setting": "[2]; po, 600 mg, Mean AUC0-24, 600 mg oral once daily, Day 5", "value": 16400, "unit": "ng·h/mL"}, {"measurement": "Cmax", "setting": "[2]; po, 600 mg, 600 mg oral once daily, Day 1", "value": 954, "unit": "ng/mL"}, {"measurement": "Cmax", "setting": "[2]; po, 600 mg, 600 mg oral once daily, Day 5", "value": 1310, "unit": "ng/mL"}, {"measurement": "Tmax", "setting": "[2]; po, 600 mg, Mean Tmax, 600 mg oral once daily, Day 1", "value": 2.51, "unit": "h"}, {"measurement": "Tmax", "setting": "[2]; po, 600 mg, Mean Tmax, 600 mg oral once daily, Day 5", "value": 2.5, "unit": "h"}, {"measurement": "exposure (dose-normalized AUC0-24) as % of that predicted if perfectly dose-proportional", "setting": "[2]; Day 1", "value": 76, "unit": "%"}, {"measurement": "exposure (dose-normalized AUC0-24) as % of that predicted if perfectly dose-proportional", "setting": "[2]; Day 5", "value": 88, "unit": "%"}, {"measurement": "bioavailability", "setting": "[3]", "value": 35, "unit": "%"}, {"measurement": "bioavailability", "setting": "[3]; phase 3 tablet formulation (tosylate salt), fasting conditions, read-out: absolute bioavailability", "value": 34.5, "unit": "%"}, {"measurement": "bioequivalence of oral and i.v. dose (based on serum AUC)", "setting": "[3]", "value": "bioequivalent"}]}
